Data: patent publication US9107415B2, “2-(substituted-phenyl)-cyclopentane-1,3-dione compounds, and derivatives thereof” (Syngenta Limited, priority 2011, dated 2015)
Read-outs that look alike come from different tables or passages of the source.

Experiments:
Format in all cases: in vivo
[1] = tested on: Avena fatua (AVEFA); assay: Biological Example 1 glasshouse screen, pre-emergence herbicidal activity; settings: 312 h, read-out: AVEFA percentage phytotoxicity
Method: (§1) Seeds of a variety of test species were sown in standard soil in pots. After cultivation for one day (pre-emergence) or after 8 days cultivation (post-emergence) under controlled conditions in a glasshouse (at 24/16°C., day/night; 14 hours light; 65% humidity), the plants were sprayed with an aqueous spray solution derived from the formulation of the “technical”(i.e. unformulated) active ingredient in acetone/water (50:50) solution containing 0.5% Tween 20 (polyoxyethylene sorbitan monolaurate, CAS Registry Number 9005-64-5). The test plants were then grown in a glasshouse under controlled conditions in a glasshouse (at 24/16°C., day/night; 14 hours light; 65% humidity) and watered twice daily. After 13 days for pre- or post-emergence, the test was evaluated visually, and an assessed percentage phytotoxicity score given for each herbicidal application on each plant/weed species (with 100%=total damage to plant; 0%=no damage to plant).
(§2) Test plants: Lolium perenne (LOLPE), Alopecurus myosuroides (ALOMY), Echinochloa crus-galli (ECHCG), and Avena fatua (AVEFA). All four of these are grassy monocotyledonous weeds.

[2] = tested on: Lolium perenne (LOLPE); assay: as above; settings: 312 h, read-out: LOLPE percentage phytotoxicity
Method: as §1, §2

[3] = tested on: Avena fatua (AVEFA); assay: Biological Example 1 glasshouse screen, post-emergence herbicidal activity; settings: 312 h, read-out: AVEFA percentage phytotoxicity
Method: as §1, §2

[4] = tested on: Lolium perenne (LOLPE); assay: as above; settings: 312 h, read-out: LOLPE percentage phytotoxicity
Method: as §1, §2

[5] = tested on: Alopecurus myosuroides (ALOMY); assay: Biological Example 1 glasshouse screen, pre-emergence herbicidal activity; settings: 312 h, read-out: ALOMY percentage phytotoxicity
Method: as §1
(§3) Test plants: Alopecurus myosuroides (ALOMY), Setaria faberi (SETFA), Echinochloa crus-galli (ECHCG), Solanum nigrum (SOLNI), Amaranthus retroflexus (AMARE) and Ipomoea hederacea (IPOHE). ALOMY, SETFA and ECHCG are grassy monocotyledonous weeds. SOLNI, AMARE and IPOHE are dicotyledonous (broadleaved) weeds.
as §2

[6] = tested on: Echinochloa crus-galli (ECHCG); assay: as above; settings: 312 h, read-out: ECHCG percentage phytotoxicity
Method: as §1, §3, §2

[7] = tested on: Triticum aestivum, wheat (TRZAW); assay: Biological Example 3 glasshouse screen, post-emergence, phytotoxicity on wheat; settings: 360 h, read-out: TRZAW percentage phytotoxicity; for pest or weed control at 60 g/ha: application rate 60 g/ha
Method: (§4) Test Method: Seeds of a variety of test species are sown in standard soil in pots. After cultivation for one day (pre-emergence) or after 12 days cultivation (post-emergence) under controlled conditions in a glasshouse (warm climate species at 24/18°C., cool climate species at 20/16°C., both at day/night; 16 hours light; 65% humidity), the plants are sprayed with an aqueous spray solution derived from the formulation of the “technical”(i.e. unformulated) active ingredient dissolved in acetone plus IF50, at a 1:20 ratio of “technical”active ingredient to IF50. The IF50 contains about 10.56 weight % Emulsogen EL™(castor oil ethoxylate, CAS Registry number 61791-12-6), about 42.22 weight % N-methylpyrrolidone, and about 42.22 weight % DPG-Monoethyl ether (dipropylene glycol mono-ethyl ether). The adjuvant X-77 (a mixture of alkyl aryl polyoxyethylene glycols and free fatty acids in isopropanol, CAS Registry number 11097-66-8) is added to the aqueous spray solution to form a 0.2% v/v solution, before spraying onto the plants.
(§5) The test plants are then grown in a glasshouse under controlled conditions in a glasshouse (at 24/18°C. or 20/16°C., day/night; 16 hours light; 65% humidity) and watered twice daily. After 15 days after application of the herbicide (15 DAA) (for post-emergence), and after 20 DAA (for pre-emergence), the test is evaluated visually, and an assessed percentage phytotoxicity score is given for each herbicidal application on each plant/weed species (with 100%=total damage to plant; 0%=no damage to plant).
These give an approximate indication of the level of selectivity on wheat for these tested compounds, when a herbicide safener such as cloquintocet-mexyl is not used: […]

[8] = tested on: Alopecurus myosuroides (ALOMY); assay: Biological Example 1 glasshouse screen, post-emergence herbicidal activity; settings: 312 h, read-out: ALOMY percentage phytotoxicity
Method: as §1, §3, §2

[9] = tested on: Echinochloa crus-galli (ECHCG); assay: as above; settings: 312 h, read-out: ECHCG percentage phytotoxicity
Method: as §1, §3, §2

[10] = tested on: Avena fatua, wild oats (AVEFA); assay: Biological Example 3 glasshouse screen, post-emergence herbicidal activity; settings: 360 h, read-out: AVEFA percentage phytotoxicity; for pest or weed control at 60 g/ha: application rate 60 g/ha
Method: as §4
as §5, with “plant). […]” for “plant).”

[11] = tested on: Echinochloa crus galli, barnyardgrass (ECHCG); assay: as above; settings: 360 h, read-out: ECHCG percentage phytotoxicity; for pest or weed control at 60 g/ha: application rate 60 g/ha
Method: as §4
as §5, with “plant). […]” for “plant).”

[12] = tested on: Lolium perenne, perennial ryegrass (LOLPE); assay: as above; settings: 360 h, read-out: LOLPE percentage phytotoxicity; for pest or weed control at 60 g/ha: application rate 60 g/ha
Method: as §4
as §5, with “plant). […]” for “plant).”

[13] = tested on: Alopecurus myosuroides, blackgrass (ALOMY); assay: as above; settings: 360 h, read-out: ALOMY percentage phytotoxicity; for pest or weed control at 60 g/ha: application rate 60 g/ha
Method: as §4
as §5, with “plant). […]” for “plant).”

[14] = tested on: Setaria faberi (SETFA); assay: Biological Example 2 post-emergence herbicidal activity (comparative data)
Method: as §1
(§6) Comparative herbicidal data are given for certain exemplified compounds with 4-(prop-1-ynyl)-2,6-dimethylphenyl or 4-(chloroethynyl)-2,6-dimethylphenyl headgroups, compared to the corresponding comparative compounds with 4-ethynyl-2,6-dimethylphenyl headgroups, as follows.
(§7) Except where specified otherwise, the glasshouse screen for herbicidal activity is substantially the same as that presented in Biological Example 1 hereinabove. The weed abbreviations are as defined in Biological Example 1.

[15] = tested on: Alopecurus myosuroides (ALOMY); assay: as above; settings: 312 h, read-out: ALOMY percentage phytotoxicity
Method: as §1, §6, §7

[16] = tested on: Echinochloa crus-galli (ECHCG); assay: as above; settings: 312 h, read-out: ECHCG percentage phytotoxicity
Method: as §1, §6, §7

[17] = tested on: Avena fatua (AVEFA); assay: as above
Method: as §1, §6, §7

[18] = tested on: Lolium perenne (LOLPE); assay: as above
Method: as §1, §6, §7

[19] = application rate 250 g/ha, evaluated after 13 days
[20] = application rate 30 g/ha, 15 DAA, no safener

SMILES	pest or weed control at 250 g/ha [1, 19] [%]	pest or weed control at 250 g/ha [2, 19] [%]	pest or weed control at 250 g/ha [3, 19] [%]	pest or weed control at 250 g/ha [4, 19] [%]	pest or weed control at 250 g/ha [5, 19] [%]	pest or weed control at 250 g/ha [6, 19] [%]	pest or weed control at 60 g/ha ([7]; 15 DAA, no safener) [%]	pest or weed control at 250 g/ha [8, 19] [%]	pest or weed control at 250 g/ha [9, 19] [%]	pest or weed control at 60 g/ha ([10]; 15 DAA, no safener) [%]	pest or weed control at 60 g/ha ([11]; 15 DAA, no safener) [%]	pest or weed control at 60 g/ha ([12]; 15 DAA, no safener) [%]	pest or weed control at 60 g/ha ([13]; 15 DAA, no safener) [%]	pest or weed control at 15.625 g/ha ([15]; 15.625 g/ha application rate) [%]	pest or weed control at 62.5 g/ha ([15]; 62.5 g/ha application rate) [%]	pest or weed control at 15.625 g/ha ([16]; 15.625 g/ha application rate) [%]	pest or weed control at 62.5 g/ha ([16]; 62.5 g/ha application rate) [%]	AVEFA percentage phytotoxicity ([17]; 15.625 g/ha application rate) [%]	AVEFA percentage phytotoxicity ([17]; 62.5 g/ha application rate) [%]	LOLPE percentage phytotoxicity ([18]; 15.625 g/ha application rate) [%]	also measured
CC#Cc1cc(C)c(C2=C(O)CC(Cc3cccnc3C#CC)C2=O)c(C)c1 (stereo not drawn) [Compound A-15]	70	100	100	100	90	100	30	90	100	80	80	40	50	–	–	–	–	–	–	–	–
C#Cc1cc(C)c(C2C(=O)CCC2=O)c(C)c1 [X-3, reference compound]	–	–	–	–	–	–	–	–	–	–	–	–	–	0	0	0	20	–	–	–	SETFA percentage phytotoxicity ([14]; 15.625 g/ha application rate): 0%; SETFA percentage phytotoxicity ([14]; 62.5 g/ha application rate): 0%
CC#Cc1cc(C)c(C2=C(O)CC(Cc3ccccn3)C2=O)c(C)c1 (racemic) [Compound A-2, rac-2-(2,6-Dimethyl-4-prop-1-ynylphenyl)-4-(pyridin-2-ylmethyl)cyclopentane-1,3-dione]	–	–	–	–	–	–	–	–	–	–	–	–	–	–	–	–	–	80	90	100	pest or weed control at 250 g/ha [1]: 70%; pest or weed control at 250 g/ha [2]: 100%; pest or weed control at 250 g/ha [3]: 100%; pest or weed control at 250 g/ha [4]: 100%; pest or weed control at 250 g/ha [5]: 100%; pest or weed control at 250 g/ha [6]: 100%; plant injury at 30 g/ha [7]: 30%; pest or weed control at 250 g/ha [8]: 100%; pest or weed control at 250 g/ha [9]: 100%; pest or weed control at 30 g/ha [10]: 70%; pest or weed control at 30 g/ha [11]: 100%; pest or weed control at 30 g/ha [12]: 90%; pest or weed control at 30 g/ha [13]: 90%; LOLPE percentage phytotoxicity ([18]; 62.5 g/ha application rate): 100%; pest or weed control at 15.625 g/ha [15]: 90%; pest or weed control at 62.5 g/ha [15]: 100%; pest or weed control at 15.625 g/ha [16]: 100%; pest or weed control at 62.5 g/ha [16]: 100%
C#Cc1cc(C)c(C2=C(O)CC(CC3CCOCC3)C2=O)c(C)c1 (stereo not drawn) [X-2, reference compound]	–	–	–	–	–	–	–	–	–	–	–	–	–	60	90	70	90	90	90	80	LOLPE percentage phytotoxicity ([18]; 62.5 g/ha application rate): 90%
CC#Cc1cc(C)c(C2=C(O)CC(Cc3cccnc3)C2=O)c(C)c1 (stereo not drawn) [Compound A-10]	90	100	90	100	80	100	50	90	100	50	80	40	80	–	–	–	–	–	–	–	–
C#Cc1cc(C)c(C2C(=O)C3C(C2=O)[C@H]2CC[C@@H]3O2)c(C)c1 (stereo partly drawn) [X-4, reference compound]	–	–	–	–	–	–	–	–	–	–	–	–	–	30	80	80	80	–	–	–	SETFA percentage phytotoxicity ([14]; 15.625 g/ha application rate): 40%; SETFA percentage phytotoxicity ([14]; 62.5 g/ha application rate): 40%
C#Cc1cc(C)c(C2=C(O)CC(Cc3ccccn3)C2=O)c(C)c1 (stereo not drawn) [X-1, reference compound]	–	–	–	–	–	–	–	–	–	–	–	–	–	60	100	70	80	50	90	60	LOLPE percentage phytotoxicity ([18]; 62.5 g/ha application rate): 100%
CC#Cc1cc(C)c(C2=C(O)CC(Cc3cccc(C)n3)C2=O)c(C)c1 (stereo not drawn) [Compound A-9]	100	100	100	100	100	100	30	90	100	30	100	100	80	–	–	–	–	–	–	–	pest or weed control at 30 g/ha [7, 20]: 20%; pest or weed control at 30 g/ha [10, 20]: 30%; pest or weed control at 30 g/ha [11, 20]: 70%; pest or weed control at 30 g/ha [12, 20]: 50%; pest or weed control at 30 g/ha [13, 20]: 70%
